Values quoted from earlier work, collected in patent US20230158080A1 ([…], LLC, priority 2021, published 2023).

How the values were obtained:
androgen receptor = androgen receptor (Homo sapiens, UniProt P10275); conditions: stimulation of EPCs
EPC = conditions: different doses of R1881
[1] = system: CD34+/F1k1+ and CD34+/VE-cadherin+ cells; conditions: castrated rats after testosterone supplementation

Chain of androgen receptor (P10275 whole entry): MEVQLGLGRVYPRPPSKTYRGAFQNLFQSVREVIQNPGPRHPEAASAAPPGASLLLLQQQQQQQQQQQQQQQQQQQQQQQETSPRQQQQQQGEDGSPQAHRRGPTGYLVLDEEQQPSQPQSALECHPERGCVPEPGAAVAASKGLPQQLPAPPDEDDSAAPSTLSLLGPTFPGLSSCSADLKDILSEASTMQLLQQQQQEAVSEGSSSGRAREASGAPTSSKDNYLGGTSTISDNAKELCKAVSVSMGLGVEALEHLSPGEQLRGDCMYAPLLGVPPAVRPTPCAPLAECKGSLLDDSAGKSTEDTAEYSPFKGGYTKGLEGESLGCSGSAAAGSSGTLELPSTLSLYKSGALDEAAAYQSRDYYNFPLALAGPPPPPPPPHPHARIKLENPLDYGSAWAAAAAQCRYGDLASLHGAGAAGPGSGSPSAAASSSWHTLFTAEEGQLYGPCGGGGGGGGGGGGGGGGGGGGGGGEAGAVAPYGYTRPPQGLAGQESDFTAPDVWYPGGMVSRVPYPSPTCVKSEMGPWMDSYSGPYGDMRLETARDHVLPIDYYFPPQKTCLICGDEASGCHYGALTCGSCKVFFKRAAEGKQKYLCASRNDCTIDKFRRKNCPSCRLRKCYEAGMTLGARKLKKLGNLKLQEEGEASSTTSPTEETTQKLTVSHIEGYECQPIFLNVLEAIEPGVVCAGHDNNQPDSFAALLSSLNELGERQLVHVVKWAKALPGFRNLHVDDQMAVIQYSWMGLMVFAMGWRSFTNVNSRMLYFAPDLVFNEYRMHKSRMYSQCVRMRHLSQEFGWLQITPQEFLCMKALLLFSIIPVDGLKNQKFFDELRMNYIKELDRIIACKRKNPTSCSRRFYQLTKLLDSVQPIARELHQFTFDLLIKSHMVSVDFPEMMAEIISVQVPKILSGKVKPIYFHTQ

| Structure (SMILES) | androgen receptor translocation in the nucleus (androgen receptor) | EPC proliferation, migration and colony formation (EPC) | percentage of EPC marker-positive cells in corpus cavernosum [1] |
| --- | --- | --- | --- |
| C[C@]1(O)CC[C@H]2[C@@H]3CCC4=CC(=O)CCC4=C3C=C[C@@]21C [R1881, methyltrienolone] | caused androgen receptor translocation in the nucleus | dose-dependent increase | – |
| C[C@]12CC[C@H]3[C@@H](CCC4=CC(=O)CC[C@@]43C)[C@@H]1CC[C@@H]2O [testosterone] | – | – | restored |
